{
  "source": "patent US9023986B2",
  "about": "“Glucose-dependent insulinotropic peptide analogs” (Hoffmann-La Roche Inc., priority 2010, dated 2015)",
  "key": {"human GIPR": {"target": "T1, human GIPR (Homo sapiens, UniProt P48546)", "T1 construct": "host or cells: CHO-K1", "T1 sequence (P48546 22-466)": "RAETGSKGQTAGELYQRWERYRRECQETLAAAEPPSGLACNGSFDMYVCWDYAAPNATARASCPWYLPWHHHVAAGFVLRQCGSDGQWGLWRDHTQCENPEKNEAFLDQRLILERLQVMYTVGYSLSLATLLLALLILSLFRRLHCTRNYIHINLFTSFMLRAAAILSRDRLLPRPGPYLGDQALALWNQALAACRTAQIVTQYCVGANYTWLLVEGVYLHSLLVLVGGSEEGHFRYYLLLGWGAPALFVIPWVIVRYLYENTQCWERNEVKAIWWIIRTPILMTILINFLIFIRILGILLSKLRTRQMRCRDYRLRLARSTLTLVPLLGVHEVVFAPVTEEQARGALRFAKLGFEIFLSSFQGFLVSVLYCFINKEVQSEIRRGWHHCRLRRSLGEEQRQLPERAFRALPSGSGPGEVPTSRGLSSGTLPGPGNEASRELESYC", "assay": "cAMP production in CHO-K1 cells expressing human GIPR (LANCE cAMP assay)", "assay_type": "cell-based", "settings": "CHO-K1, read-out: % activation of cAMP (maximal stimulation)", "protocol": "CHO—K1 cells expressing human GIPR were obtained from DiscoverX Corporation (Fremont, Calif.). The cells were cultured in Ham's F-12 nutrient media supplemented with 10% foetal bovine serum, 800 μg/ml geneticin, 300 μg/ml hydromycin, 2 mM L-glutamine, and Penicillin-streptomycin (100 units, 100 μg) at 37° C. in a 5% CO2 incubator. The cells were harvested at 90% confluence.\nThe cells were suspended in Ham's F-12 nutrient media to a concentration of 200,000 cells/ml. The cells were then plated in a 384 well plate at with […] of the suspension added per well. The cells were incubated overnight at 37° C. in a 5% CO2 incubator.\nThe activity of the compounds was determined by stimulating the CHO—K1 cells with the test compound, and measuring the levels of cAMP produced. The activity of the compounds was compared to the activity of native GIP, as GIP stimulates cAMP production. 6 μl of the test compound in stimulation buffer (990 ml Hank's Balanced Salt solution (HBSS) (1×) (Invitrogen Corp #14025-092), 10 ml Hepes buffer solution (1 mol·L) (Invitrogen Corp 15630-080), 1 g BSA (final 0.1%), and 1 ml IBMX 250 mM stock prepared fresh in DMSO (Sigma-Aldrich 15879)) were added to cells, followed by 6 μl of Alexa Fluor® 647-anti cAMP antibody (Perkin Elmer) in stimulation buffer. […] The well plate was centrifuged for 3 min at 300 rpm, and incubated at room temperature for 45 minutes. 12 μl of detection mixture (biotin cAMP and EUW8044 labeled streptavidin (Eu-SA) in cAMP Detection Buffer (Perkin Elmer)) was added and incubated for 60 min at room temperature.\nThe levels of cAMP produced were measured according to the detailed protocol outlined in the Perkin Elmer LANCE cAMP Assay Perkin Elmer Lance cAMP Kit manual. The activity of the compounds was compared to the activity of native GIP.\nThe plates are read on a TRF detection instrument, EnVision® (Perkin Elmer) (excitation at 340 nm and emission at 665 nm). The values of the cAMP signal are obtained from the standard cAMP curve and used to determine the amount of maximal stimulation, and EC50 for stimulating the cAMP signal."}, "[1]": {"assay": "stability in Hannover Wistar rat plasma", "assay_type": "in vitro ADME", "settings": "for stability in rat plasma (in words): acceptance range 75-125%", "protocol": "(§1) The following study was conducted to assess the stability of the compound of Example 19 in Hannover Wistar rat and human plasma after 4 and 24 hours.\n(§2) 2.08 mg of the compound of Example 19 was weighed out and placed in a 4 mL amber vial. To this was added 1.0 mL DMSO. The vial was carefully vortexed to produce a 573 μM stock solution of the compound.\n(§3) Hannover Wistar rat plasma and human plasma (anti-coagulant sodium EDTA) were pre-warmed to 37° C. for 30 minutes in a water bath. Rat plasma pH was 7.45 and human plasma pH was 7.47. 1.5 mL microcentrifuge vials were used.\n(§4) 8.70 μL of 573 μM stock solution of the compound of Example 19 was added to 491.34 μL of the rat plasma and placed into one vial. 8.74 μL of 573 μM stock solution of the compound of Example 19 was added to 491.34 μL of the human plasma and placed into another vial. The two vials were gently vortexed ensuring proper mixing.\n(§5) Six new vials were labeled as follows: rat T0, rat T4, rat T24, human T0, human T4, human T24. To each of these vials, […] of treated plasma was added. The T4 and T24 vials were capped and placed in a 37° C. incubator for 4 and 24 hours, respectively.\n(§6) To each of the two T0 vials, 50 µL of Sorensen buffer and 200 μL 1.0% acetic acid in acetonitrile were added. The T0 vials were then capped, vortexed and centrifuged at 10000×g for 10 minutes. Upon completion of centrifugation, 100 μL of the supernatant of each vial was added to a separate well in a 96-well injection block. 200 μL of 0.1% acetic acid in Milli-Q® water (Millipore) was then added to each well.\n(§7) The above procedure as written with respect to the T0 vials was repeated for the two T4 vials at the 4 hour timepoint and the T24 vials at the 24 hour timepoint. With each timepoint a fresh T0 sample was prepared, as described above, to ensure there was no sample degradation.\n(§8) All samples were analyzed by LC/MS/MS. The resulting chromatographs were processed to obtain peaks areas for each sample. The percent of compound remaining at each timepoint as compared with the amount present in the comparison T0 sample was calculated."}, "[2]": {"assay": "stability in human plasma", "assay_type": "in vitro ADME", "protocol": "as §1, §2, §3, §4, §5, §6, §7, §8"}},
  "note": "Non-standard residues stand in square brackets, D forms with d. Residues, ends and D or L forms follow the SMILES beside them.",
  "data": [
    {"smiles": "CC[C@H](C)[C@H](NC(=O)[C@H](C)NC(=O)[C@H](CC(=O)O)NC(=O)[C@H](CCSC)NC(=O)[C@H](C)NC(=O)[C@@H](NC(=O)[C@H](CO)NC(=O)[C@H](Cc1ccc(O)cc1)NC(=O)[C@H](CC(=O)O)NC(=O)[C@H](CO)NC(=O)[C@@H](NC(=O)[C@H](Cc1ccccc1)NC(=O)[C@@H](NC(=O)CNC(=O)[C@H](CCC(=O)O)NC(=O)[C@H](C)NC(=O)[C@@H](Cc1ccc(O)cc1)NC(C)=O)[C@@H](C)O)[C@@H](C)CC)[C@@H](C)CC)C(=O)N[C@@H](Cc1c[nH]cn1)C(=O)N[C@@H](CCC(N)=O)C(=O)N[C@@H](CCC(N)=O)C(=O)N[C@@H](CC(=O)O)C(=O)N[C@@H](Cc1ccccc1)C(=O)N[C@H](C(=O)N[C@@H](CC(N)=O)C(=O)N[C@@H](Cc1c[nH]c2ccccc12)C(=O)N[C@@H](CC(C)C)C(=O)N[C@@H](CC(C)C)C(=O)N[C@@H](C)C(=O)N[C@@H](CCC(N)=O)C(=O)N[C@@H](CCCCN)C(N)=O)C(C)C", "note": "[Example 19] (Ac-[dY]AEGTFISDYSIAMDAIHQQDFVNWLLAQK-NH2)", "values": [
      {"measurement": "Emax", "setting": "human GIPR", "value": 100, "unit": "%"},
      {"measurement": "% Remaining 4 hr, Rat", "setting": "[1]; 10 uM, 37° C., 4 hr, vs T0 sample, LC/MS/MS", "value": 124.7, "unit": "%"},
      {"measurement": "stability in rat plasma (in words)", "setting": "[1]; 4 hours", "value": "stable"},
      {"measurement": "stability in rat plasma (in words)", "setting": "[1]; 24 hour timepoint", "value": "slightly below the acceptance range"},
      {"measurement": "remaining at 24 h, 10 µM", "setting": "[1]; Hannover Wistar, pH 7.45, 10 uM, 37° C., 24 hr, vs T0 sample, LC/MS/MS", "value": 72.7, "unit": "%"},
      {"measurement": "stability in human plasma (in words)", "setting": "[2]; both the 4 hour and the 24 hour timepoints", "value": "stable"},
      {"measurement": "remaining at 4 h, 10 µM", "setting": "[2]; pH 7.47, 10 uM, 37° C., 4 hr, vs T0 sample, LC/MS/MS", "value": 93.6, "unit": "%"},
      {"measurement": "remaining at 24 h, 10 µM", "setting": "[2]; pH 7.47, 10 uM, 37° C., 24 hr, vs T0 sample, LC/MS/MS", "value": 75.9, "unit": "%"}
    ]}
  ]
}
